From US12663562B2, “Polysaccharide hydrogel optical fibers and their fabrication and use” (The Board of Trustees of the Leland Stanford Junior …, priority 2021, dated 2026)

Tests used:
Type in all cases: cell-based
RV122 cancer cells = test: Optical fiber anti-cancer drug testing (RFP-level transmission, calcein profiling, image quantification); settings: for calcein activity profiling (slope of calcein conversion): RV122 cancer cells after culture with drug; for image quantification of native protein expression (RFP) and calcein metabolization: microscopy validation, RV122 cancer cells
Procedure: (§1) To validate the possibility of light carrying information upon interaction with fluorescent molecules, 3T3 fibroblasts were stained with two model fluorescent markers of different wavelengths, namely Orange Cell Tracker CMRA and Calcein AM (Invitrogen) according to manufacturer's instructions. Briefly, 3T3 cells in suspension were incubated with each marker for 30 minutes under 37° C., washed with PBS, and introduced in the optical fiber core as described above. Fibers were then fabricated and aligned in the input-output setup as previously described the light source and spectrometer. Output spectra were collected and spectral ratios were obtained by dividing the spectra of fluorescent-tagged cell-laden fibers to those without fluorescent molecules, in order to confirm the presence of transmission dips in agreement with the marker's excitation curves. For performing calcein AM overtime metabolic tracking, 4 cm-long fibers with unstained cells were aligned in the optical readout setup, and 10 μL of a 1:100 Calcein AM solution in CaPBS was added dropwise along the optical fiber's length. The spectral output was then collected every minute for a total of 10 minutes after the beginning of the calcein AM metabolization. The 495 nm normalized transmission values were obtained by normalizing all spectral curves to their maximum and extracting the normalized intensity values as an average of the 493-495 nm window. These were then plotted overtime.
(§2) LNCaP, 22Rv1, and DU145 cells were purchased from the American Type Culture Collection (ATCC; Manassas, VA). All cell lines were authenticated through Stanford Functional Genomics Facility. FUCRW plasmid was a kind gift from Dr. Owen Witte's laboratory at University of California Los Angeles. 22Rv1 and DU145 cells were infected with FUCRW virus expressing red fluorescent protein (RFP). RFP signal was confirmed 72 hours post infection. LNCaP-RFP-Trop2-OV cells expressing RFP and Trop2 oncogene were generated as previously described ^43. All cells were cultured in RPMI medium supplemented with 10% FBS, 4 mM L-glutamine, and 1% penicillin/streptomycin.
(§3) Spectral fingerprinting tests with the different cell lines were performed by integrating them within optical hydrogel fibers as described in the previous section. Briefly, cancer cells were resuspended in the core material at a density of 10 M/mL and cultured in different conditions, namely control medium, 1.5 μM Cisplatin (Biovision) or 1 μM Staurosporine (Biovision). After 48 h of culture, the living optical fibers were washed twice with PBS to remove media remains that could interfere with optical readouts (e.g., Phenol Red). Before measurement, fibers were placed in a 1 mM CaCl2) solution to facilitate their manipulation and were then aligned in the optical characterization setup with spectrometer connection. RFP-level transmission readouts were immediately obtained from the first output collected, and calcein activity overtime was then tracked by the addition of calcein and spectral recording every minute for 10 minutes, as described in the previous section. […] Both RFP and calcein signals were analyzed in several pictures per replicate via Cell Profiler, in order to compare the relative post-incubation signal intensities to the relative decreases in fiber optics transmission at each specific wavelength instantly (RFP) and overtime (calcein).

DU145 cells = test: Spectral fingerprinting (RFP-level transmission, real-time calcein AM metabolism) of cancer cells in living optical fibers; settings: DU145 cells in fiber core, 48 h culture, 1.5 μM cisplatin or 1 μM staurosporine
Procedure: as §1
as §2, with “LNCaP-RFP-Trop2-OV cells expressing RFP and Trop2 oncogene were generated as previously described ^43. All cells were cultured in RPMI medium supplemented with 10% FBS, 4 mM L-glutamine, and 1% penicillin/streptomycin.” left out
as §3, with “Briefly, cancer cells were resuspended in the core material at a density of 10 M/mL and cultured in different conditions, namely control medium, 1.5 μM Cisplatin (Biovision) or 1 μM Staurosporine (Biovision).” left out, “Before measurement, fibers were placed in a 1 mM CaCl2) solution to facilitate their manipulation and were then aligned in the optical characterization setup with spectrometer connection.” left out

[1] = test system: LnCAP-RFP-Trop2-OV cancer cells; test: Digitalization and quantification of 3D cancer invasive proliferation in living optical fibers (output power, RFP-level transmission)
Procedure: In order to evaluate the invasive proliferation of encapsulated cancer cells over time and quantify this response through optics upon exposure to different levels of the anti-proliferative drug cisplatin, the core material was modified by blending alginate with GelTrex (Growth-Factor Reduced Basement Membrane, Thermofisher) at a 50:50 ratio. Fibers with Cells were fabricated as described before with a 10 million/mL density and were cultured for 1 week to observe the cancer tissue development and the formation of fiberoid (fiber-shaped organoids) structures. To do so, fibers were incubated with Calcein AM 1:500 (Invitrogen) and Hoechst 33342 1:1000 (Thermo Scientific), washed with PBS and imaged under confocal microscope (Zeiss). As model cell line, we used the RFP-expressing LNCaP-RFP-Trop2-OV due to its aggressiveness and relevance in metastatic events. To then quantify the effect of cisplatin in the impedance of 3D tumor growth, fibers were cultured over a 5-days period under control conditions and increasing concentrations of cisplatin (1.5, 15 and 150 μM). After each time point, fibers were washed twice with CaPBS, briefly dipped in 1 mM CaCl2) and aligned in the optical characterization setup. Two types of immediate readouts were acquired: output power via powermeter reading and spectral response through spectrometer connection. Output power was directly used as an indicator of light attenuation induced by tumor growth and spectral data was processed to extract RFP-level transmission values, as plotted in the maintext. In parallel, fibers were also axially sectioned and imaged in confocal microscope for observing the distribution of cancer cells and aggregates within the fiber structure overtime and validate the fiber optics readouts.

Compound	calcein activity profiling (slope of calcein conversion) (RV122 cancer cells)	native fluorescence, RFP-level transmission (RV122 cancer cells; RV122 cancer cells in fibers after drug exposure)	image quantification of native protein expression (RFP) and calcein metabolization (RV122 cancer cells)	RFP expression (RFP-level transmission) (DU145 cells)	capacity of cells to metabolize calcein (calcein AM real-time profile) (DU145 cells)	RFP expression (RFP-level transmission) ([1]; cisplatin 1.5 µM)	cancer growth (optical fiber output power) ([1]; cisplatin 1.5 μM, up to 5 days)	RFP expression (RFP-level transmission) ([1]; cisplatin 15 μM)	cancer growth (optical fiber output power) ([1]; cisplatin 15 μM, up to 5 days)	RFP expression (RFP-level transmission) ([1]; cisplatin 150 μM, after 1 day of culture)	cancer growth / invasive proliferation (optical fiber output power) ([1]; cisplatin 150 μM, up to 5 days)
CN[C@@H]1C[C@H]2O[C@@](C)([C@@H]1OC)n1c3ccccc3c3c4c(c5c6ccccc6n2c5c31)C(=O)NC4 [staurosporine]	no longer possible to observe metabolic calcein conversion	significant decrease in fluorescent	more prominent effects	significant reduction in RFP expression	drastic inhibition	–	–	–	–	–	–
N.N.[Cl][Pt][Cl] [cisplatin]	decrease in the slope	–	moderate effect	little impact	little impact	some effect in the protein's expression by day 5	no significant impact	noticeable effect after day 3	prevented considerable growth after 3 days	significant decrease in expression	efficiently inhibited the invasive proliferation
